Ten molecules from PubChem BioAssay (NCI) can be followed below.

Some test systems named below: HL-60(TB) leukemia; OVCAR-4 ovarian; RXF 393 renal; U251 CNS; TK-10 renal; M14 melanoma; HOP-62 NSCLC; SK-MEL-28 melanoma; SF-295 CNS; ACHN renal.
What all share (assay): growth of human tumour cells (NCI), 48 h

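How tested: cells in 96-well plates exposed to compound for 48 hours at five concentrations. GI50: concentration for 50% inhibition of growth. At the TGI there is no net growth.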

For the molecule `O=S1CSCS1` (centres undefined), the TGI with HL-60(TB) leukemia, with OVCAR-4 ovarian, with RXF 393 renal, in the assay with U251 CNS, in the assay on TK-10 renal and with M14 melanoma was more than 100 µM in each case. The TGI with HOP-62 NSCLC, in the assay with SK-MEL-28 melanoma, in the assay with SF-295 CNS and in the assay on ACHN renal was more than 100 µM throughout.

In the case of `CC(C)(C)N/N=C(\Cc1occc(=O)c1O)C(=O)Nc1ccc([N+](=O)[O-])cc1[N+](=O)[O-]`, the TGI in the assay with HL-60(TB) leukemia, in the assay on OVCAR-4 ovarian, in the assay with RXF 393 renal, in the assay on U251 CNS, in the assay with TK-10 renal and with M14 melanoma was more than 100 µM each time. Also, the TGI in the assay with HOP-62 NSCLC, in the assay on SK-MEL-28 melanoma, in the assay on SF-295 CNS and in the assay on ACHN renal was more than 100 µM each time.

On to `O=c1oc2cc(N=Cc3ccccc3Cl)ccc2c2ccccc12`, for which the TGI with HL-60(TB) leukemia, in the assay with OVCAR-4 ovarian, in the assay with RXF 393 renal, with U251 CNS, in the assay with M14 melanoma and with HOP-62 NSCLC was more than 100 µM throughout. Also, the TGI in the assay on SK-MEL-28 melanoma, in the assay on SF-295 CNS and with ACHN renal was more than 100 µM in each case.

For `COc1ccc(C(C#N)NC23CC4CC(CC(C4)C2)C3)cc1OC` (centres undefined), the TGI with HL-60(TB) leukemia, in the assay with OVCAR-4 ovarian, with RXF 393 renal, with U251 CNS, in the assay with TK-10 renal and with M14 melanoma was more than 100 µM in each case. The TGI with HOP-62 NSCLC, with SK-MEL-28 melanoma, in the assay on SF-295 CNS and in the assay with ACHN renal was more than 100 µM each time.

In the case of `COc1ccc(-c2nn(-c3ccc(NC(=O)c4ccc(Cl)c(C(F)(F)F)c4)cc3)cc2-c2ccncc2)cc1Cl`, the GI50 was 0.794 µM in the assay on HL-60(TB) leukemia; 2.48 µM in the assay with OVCAR-4 ovarian; 0.168 µM with RXF 393 renal; 0.408 µM in the assay with U251 CNS; 1.71 µM in the assay with TK-10 renal; 0.471 µM in the assay on M14 melanoma. For the same molecule, the GI50 is 0.423 µM in the assay on HOP-62 NSCLC, 2.85 µM in the assay with SK-MEL-28 melanoma, 0.217 µM in the assay with SF-295 CNS and 1.58 µM in the assay with ACHN renal. Also, the TGI with HL-60(TB) leukemia was more than 100 µM; in the assay on OVCAR-4 ovarian, more than 100 µM; in the assay with RXF 393 renal, 0.489 µM; in the assay on U251 CNS, 7.82 µM; with TK-10 renal, more than 32.8 µM; with M14 melanoma it was 3.08 µM. The TGI in the assay on HOP-62 NSCLC was 4.88 µM; in the assay with SK-MEL-28 melanoma, more than 100 µM; in the assay with SF-295 CNS, 0.79 µM; in the assay with ACHN renal, more than 100 µM.

In the case of `Cc1cc(=O)n(-c2ccccc2)c(=O)o1`, the TGI in the assay with HL-60(TB) leukemia, in the assay on OVCAR-4 ovarian, in the assay on RXF 393 renal, in the assay with U251 CNS, with TK-10 renal and in the assay on M14 melanoma was more than 100 µM throughout. Also, the TGI with HOP-62 NSCLC, in the assay with SK-MEL-28 melanoma, with SF-295 CNS and in the assay on ACHN renal was more than 100 µM in each case.

`O=C(/C=C/c1ccccc1)c1c[nH]c2ccccc2c1=O`: the GI50 was 2.81 µM with HL-60(TB) leukemia; 4.88 µM in the assay with OVCAR-4 ovarian; 3.05 µM in the assay on RXF 393 renal; 2.29 µM in the assay on U251 CNS; 2.08 µM in the assay on TK-10 renal; 3.49 µM with M14 melanoma. Further, the GI50 in the assay on HOP-62 NSCLC is 3.5 µM; in the assay on SK-MEL-28 melanoma it was 6.53 µM; with SF-295 CNS, 2.31 µM; with ACHN renal, 3.01 µM. Moreover, the TGI with HL-60(TB) leukemia stood at 10.6 µM; in the assay with OVCAR-4 ovarian it was 23.5 µM; with RXF 393 renal, 11.5 µM; with U251 CNS it was 11 µM; with TK-10 renal, 5.37 µM; in the assay on M14 melanoma, 11.6 µM. Further, the TGI with HOP-62 NSCLC was determined as 12.2 µM; in the assay on SK-MEL-28 melanoma it was 19.4 µM; with SF-295 CNS it was 7.18 µM; with ACHN renal, 11.7 µM.

Regarding `Oc1c(C(Nc2cccc3ccccc23)c2ccccc2)ccc2cccnc12` (centres undefined), the GI50 in the assay with HL-60(TB) leukemia was 1.93 µM; in the assay with OVCAR-4 ovarian it was 2.3 µM; in the assay on RXF 393 renal it was 3.12 µM; in the assay on U251 CNS it was 2.42 µM; in the assay on TK-10 renal it was 11 µM; in the assay with M14 melanoma, 2.01 µM. The GI50 in the assay on HOP-62 NSCLC was 4.9 µM; with SK-MEL-28 melanoma, 4.14 µM; in the assay on SF-295 CNS, 2.96 µM; in the assay with ACHN renal, 3.55 µM. The TGI in the assay with HL-60(TB) leukemia is 8.4 µM; in the assay with OVCAR-4 ovarian, more than 100 µM; with RXF 393 renal it was 19.1 µM; in the assay with U251 CNS, 16 µM; with TK-10 renal, 45.8 µM; in the assay with M14 melanoma, 8.48 µM. Further, the TGI was more than 100 µM in the assay on HOP-62 NSCLC, more than 100 µM with SK-MEL-28 melanoma, more than 100 µM with SF-295 CNS and 28.6 µM with ACHN renal.

On to `N#CC(C#N)=Cc1c(-c2ccccc2)[nH]c2ccccc12`, for which the GI50 in the assay on HL-60(TB) leukemia is 1.62 µM; with OVCAR-4 ovarian it was 5.22 µM; in the assay with RXF 393 renal, 3.33 µM; in the assay with U251 CNS, 1.18 µM; with TK-10 renal, 5.23 µM; in the assay on M14 melanoma it was 1.88 µM. For the same molecule, the GI50 in the assay with HOP-62 NSCLC was 11.2 µM; in the assay with SK-MEL-28 melanoma it was 3.57 µM; in the assay on SF-295 CNS, 1.59 µM; in the assay on ACHN renal, 7.07 µM. Moreover, the TGI in the assay with HL-60(TB) leukemia is more than 20.2 µM; in the assay on OVCAR-4 ovarian, more than 100 µM; in the assay with RXF 393 renal, more than 33.3 µM; in the assay with U251 CNS it was 28 µM; in the assay with TK-10 renal it was more than 75.1 µM; with M14 melanoma, more than 56.6 µM. The TGI in the assay on HOP-62 NSCLC was 55.2 µM; in the assay with SK-MEL-28 melanoma it was more than 45.8 µM; in the assay on SF-295 CNS, 15.5 µM; in the assay on ACHN renal, more than 55.9 µM.

With `Cc1cc(=O)oc2c(CN3CCCCC3)c(O)ccc12`, the TGI in the assay on HL-60(TB) leukemia, with OVCAR-4 ovarian, with RXF 393 renal, with U251 CNS, in the assay on TK-10 renal and with M14 melanoma was more than 100 µM each time. Besides, the TGI in the assay on HOP-62 NSCLC, in the assay on SK-MEL-28 melanoma, in the assay on SF-295 CNS and in the assay on ACHN renal was more than 100 µM each time.
